This note sets out measurements from patent US20240132473A1, “SULFOXIMIDE SUBSTITUTED INDAZOLE IRAK4 KINASE INHIBITOR, PREPARATION METHOD THEREOF AND USE THEREOF” (Shanghai Xunhe Pharmaceutical Technology Co. Ltd., priority 2021, published 2024).

Series [1] in a line: in vivo. Particulars: ICR, mouse, po. The method, then: On the day of administration, observations were made approximately 0.5, 1, 2, 4, and 6 hours after the first administration. During day 2 to day 6 of the observation period, observations were made twice a day, once in the morning and once in the afternoon.
Observations included but not limited to: general conditions, behavioral activities, gait and posture, eyes, mouth, nose, gastrointestinal tract, skin hair and urogenital tract.
Weight data were expressed as mean ±standard deviation. Levene's test and one-way analysis of variance were used for comparison between groups. If there was a difference, Dunnet t test was then used.
The maximum tolerated dose refers to the dose administered when the animal was dying.

The nature of series [2]: in vivo. The following applies: rat, po; for half-life: SD, in vivo; for AUC(0-t) / Cmax / Tmax: plasma, 25 mg/kg. On the procedure:
SD rats were used as the test animals.
Standard curve and preparation and processing of quality control samples:
Stock solution was diluted with 50% acetonitrile-water to obtain standard working solutions of 0.04, 0.10, 0.20, 0.40, 1.00, 2.00, 4.00 μg/mL, and quality control working solutions of 0.10, 1.00, 3.00 μg/mL. […] 200 μL of acetonitrile (containing 5 ng/mL of the internal standard loratadine) was added. After the vortex oscillation for 3 minutes, the solutions were centrifuged at 15000 rpm at 4° C. for 15 minutes. 100 μL of the supernatant was taken for LC-MS/MS analysis. WinNonlin ® 8.0 was used to calculate the experimental results.

Series [3] deals with TNF-α secretion in THP-1 cells. The series can be described thus: Inhibition of LPS-stimulated TNF-α secretion in THP-1 cells (ELISA). Type of series: cell-based. Particulars: Homo sapiens, LPS 1 μg/mL, 4.5 hours. On the procedure:
TNF-α is a key cytokine involved in the inflammatory process of the listed autoimmune disease, such as rheumatoid arthritis, psoriatic arthritis, ankylosing spondylitis, psoriasis, Crohn's disease, ulcerative colitis, etc. In this test, TNF-α secretion was triggered by incubation with bacterial lipopolysaccharides (LPS). […] The 96-well plate was rotated at 2000 rpm for 5 minutes, and then 50 μL of supernatant was taken. The content of TNF-α in the supernatant was determined by human ELISA kit, and IC50 value of the compound was calculated by XL-Fit (table 4).
(In general: In an ELISA, binding on a coated surface is turned into a signal by an enzyme label.)

In the next series the target is IRAK4 kinase (Homo sapiens (Human), UniProt Q9NWZ3). The series can be described thus: IRAK4 kinase inhibitory activity assay (mobility shift assay, Km ATP). The following applies: MSA, ATP 37 μM (Km ATP). Type of series: biochemical. On the procedure: The inhibitory activity (IC50) of the compound on IRAK4 kinase under Km ATP was detected by mobility shift assay (MSA). Ten drug concentration gradients were set (initial concentration 1 μM, 3-fold dilution, 2 duplicate wells per concentration). […] After incubation at 28° C. for a period of time, 10 μL of termination buffer was added to terminate the reaction. The conversion rate data was read with Caliper, and then the conversion rate was converted into inhibition rate data. According to the inhibition rate data of each concentration, the IC50 of half inhibitory concentration was calculated by Logit method (Table 3).
Chain of IRAK4 kinase (Q9NWZ3 whole entry): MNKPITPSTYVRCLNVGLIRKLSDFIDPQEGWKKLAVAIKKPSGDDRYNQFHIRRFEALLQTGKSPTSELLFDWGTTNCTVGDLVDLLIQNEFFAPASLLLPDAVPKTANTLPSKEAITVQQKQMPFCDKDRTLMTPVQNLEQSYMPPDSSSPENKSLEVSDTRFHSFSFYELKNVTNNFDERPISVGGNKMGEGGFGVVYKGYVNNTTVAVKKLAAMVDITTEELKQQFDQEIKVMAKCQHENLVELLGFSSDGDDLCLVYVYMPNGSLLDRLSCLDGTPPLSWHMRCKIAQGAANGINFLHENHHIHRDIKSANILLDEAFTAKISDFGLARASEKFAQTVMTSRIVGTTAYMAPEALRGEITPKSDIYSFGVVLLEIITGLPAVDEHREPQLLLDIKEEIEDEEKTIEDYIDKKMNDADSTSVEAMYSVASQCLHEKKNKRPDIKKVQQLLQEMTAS

In a further series the target is hERG potassium channel (Homo sapiens (Human), UniProt Q12809). The series is described as follows: cell-based. Particulars: human. From the text:
The rapid activation of delayed rectifier outward potassium current (IKr) in humans is mainly mediated by hERG ion channel and participates in human myocardial cell repolarization. Drug blockade of this current will lead to the appearance of QT interval prolongation syndrome in clinical practice, which can easily induce acute arrhythmia and even sudden death.

Chain of hERG potassium channel (Q12809 whole entry): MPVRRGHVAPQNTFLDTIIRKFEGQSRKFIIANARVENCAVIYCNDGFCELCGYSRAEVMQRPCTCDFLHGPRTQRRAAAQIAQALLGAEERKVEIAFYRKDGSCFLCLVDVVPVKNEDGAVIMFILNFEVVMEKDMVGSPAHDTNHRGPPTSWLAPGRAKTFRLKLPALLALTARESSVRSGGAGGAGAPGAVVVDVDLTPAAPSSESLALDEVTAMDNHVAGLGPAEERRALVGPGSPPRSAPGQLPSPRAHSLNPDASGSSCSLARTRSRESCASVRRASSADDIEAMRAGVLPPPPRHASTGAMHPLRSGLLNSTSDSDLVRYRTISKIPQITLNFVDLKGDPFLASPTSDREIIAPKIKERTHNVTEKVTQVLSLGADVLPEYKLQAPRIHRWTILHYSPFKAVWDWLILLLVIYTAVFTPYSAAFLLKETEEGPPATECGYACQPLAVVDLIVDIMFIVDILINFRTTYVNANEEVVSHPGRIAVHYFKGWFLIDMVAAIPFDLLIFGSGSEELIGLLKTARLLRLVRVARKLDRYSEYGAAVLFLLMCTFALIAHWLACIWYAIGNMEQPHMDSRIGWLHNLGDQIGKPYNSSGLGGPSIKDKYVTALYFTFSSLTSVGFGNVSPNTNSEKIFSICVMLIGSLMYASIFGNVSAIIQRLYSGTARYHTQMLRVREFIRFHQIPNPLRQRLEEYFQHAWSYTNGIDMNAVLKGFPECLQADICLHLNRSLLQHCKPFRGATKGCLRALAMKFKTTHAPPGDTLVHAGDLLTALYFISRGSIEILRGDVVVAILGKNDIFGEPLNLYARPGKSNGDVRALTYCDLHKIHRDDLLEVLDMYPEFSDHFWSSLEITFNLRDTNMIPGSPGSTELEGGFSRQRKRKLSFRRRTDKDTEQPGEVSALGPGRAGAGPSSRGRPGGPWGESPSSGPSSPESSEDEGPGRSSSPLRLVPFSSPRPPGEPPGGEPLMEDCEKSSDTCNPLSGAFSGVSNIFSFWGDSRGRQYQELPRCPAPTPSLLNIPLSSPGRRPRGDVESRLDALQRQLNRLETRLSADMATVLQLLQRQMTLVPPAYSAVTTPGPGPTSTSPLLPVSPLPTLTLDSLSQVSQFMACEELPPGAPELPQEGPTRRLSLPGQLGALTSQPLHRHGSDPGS

One may read the half-life as the time in which the quantity being followed falls by half. Higher therefore signals slow loss. Broadly, the AUC(0-t) is exposure summed from dosing to a finite time, without extrapolation to infinity. In general, Cmax refers to the peak of the concentration-time curve. The Tmax is the time from dosing to the highest level. As a reminder, the IC50 is the point on the concentration scale where inhibition reaches its midpoint. The compound `COc1cc2nn(CCS(=N)(=O)c3ncccn3)cc2cc1NC(=O)c1cccc(C(F)(F)F)n1` (centres unmarked) [Compound I-31] displayed an MTD at 6 days in “in vivo [1]” greater than 2000 mg/kg. Also, in “in vivo [2]”, the half-life was 270 min, the AUC(0-t) is 7980 ng·h/mL, the Cmax is 1300 ng/mL and the Tmax was found to be 4.8 h. This compound registered an IC50 in series [3] of 1.3 nM. The IC50 on IRAK4 kinase was determined as 0.6 nM. Also, the “Inhibition rate (%) of hERG current” value on hERG potassium channel (5 μM) worked out at 1.7%. On hERG potassium channel (50 μM), the “Inhibition rate (%) of hERG current” value is on record as -0.2%. The “Inhibition rate (%) of hERG current” value at hERG potassium channel (500 μM) worked out at 6.7%.
On to `Cc1cc(-c2nc(C(=O)Nc3cc4cn(CCS(=N)(=O)c5ccnc6ccccc56)nc4cc3C(C)(C)O)co2)ccn1` (centres unmarked) [Compound I-29], for which the MTD at 6 days in “in vivo [1]” is greater than 2000 mg/kg. Also, in “in vivo [2]”, the half-life is 348 min, the AUC(0-t) was determined as 8130 ng·h/mL, the Cmax came out at 1370 ng/mL and the Tmax was 5.9 h. The same compound came in with an IC50 in series [3] of 0.9 nM. Further, the IC50 at IRAK4 kinase amounted to 0.6 nM. Moreover, the “Inhibition rate (%) of hERG current” value at hERG potassium channel (5 μM) is recorded as -3.9%. In addition, on hERG potassium channel (50 μM), the “Inhibition rate (%) of hERG current” value was 1.2%. For the same compound, the “Inhibition rate (%) of hERG current” value on hERG potassium channel (500 μM) was determined as 13.9%.
As for `COc1cc2nn(CCS(=N)(=O)c3ccccc3)cc2cc1NC(=O)c1cccc(C(F)(F)F)n1` (centres unmarked) [Compound I-1], in “in vivo [1]”, the MTD at 6 days is greater than 2000 mg/kg. Further, in “in vivo [2]”, the half-life is 300 min, the AUC(0-t) was 8330 ng·h/mL, the Cmax stood at 1600 ng/mL and the Tmax came out at 6.2 h. For the same compound, the IC50 in series [3] was found to be 0.5 nM. The half-inhibitory concentration (IC50) on IRAK4 kinase stood at 0.3 nM. Besides, the “Inhibition rate (%) of hERG current” value at hERG potassium channel (5 μM) was -1.0%. At hERG potassium channel (50 μM), the “Inhibition rate (%) of hERG current” value came to 2.3%. For the same compound, the “Inhibition rate (%) of hERG current” value on hERG potassium channel (500 μM) came to 15.6%.
Turning to `CC(C)(O)c1cc2nn(CCS(=N)(=O)c3ccccc3)cc2cc1NC(=O)c1cccc(C(F)(F)F)n1` (centres unmarked) [Compound I-2], the MTD at 6 days in the series “in vivo [1]” is greater than 2000 mg/kg. Further, in the series “in vivo [2]”, the half-life is 330 min, the exposure AUC(0-t) came to 8100 ng·h/mL, the Cmax was determined as 1580 ng/mL and the Tmax came to 6.5 h. The compound further gave an IC50 in series [3] of 0.3 nM. Further, at IRAK4 kinase, the IC50 amounted to 0.5 nM. Further, on hERG potassium channel (5 μM), the “Inhibition rate (%) of hERG current” value is listed as -0.5%. The “Inhibition rate (%) of hERG current” value at hERG potassium channel (50 μM) came out at 0.7%. The “Inhibition rate (%) of hERG current” value at hERG potassium channel (500 μM) amounted to 12.3%.
In turn, `COc1cc2nn(CCS(=N)(=O)c3ccncc3)cc2cc1NC(=O)c1cccc(C(F)(F)F)n1` (centres unmarked) [Compound I-5] displayed an MTD at 6 days in “in vivo [1]” greater than 2000 mg/kg. Also, in “in vivo [2]”, the half-life is 306 min. This compound also yielded an area under the curve AUC(0-t) in the series “in vivo [2]” of 8280 ng·h/mL. Also, the Cmax in “in vivo [2]” was 1400 ng/mL. Moreover, in “in vivo [2]”, the Tmax came out at 6.2 h. The half-maximal inhibitory concentration (IC50) is 0.7 nM in series [3] and 0.4 nM at IRAK4 kinase. The entries for the “Inhibition rate (%) of hERG current” value on hERG potassium channel (5 μM), at hERG potassium channel (50 μM) and on hERG potassium channel (500 μM) were 0.0%, -1.0% and 13.4%, respectively.
In the series “in vivo [1]”, `CC(C)(O)c1cc2nn(CCS(=N)(=O)c3ccnc4ccccc34)cc2cc1NC(=O)c1cccc(C(F)(F)F)n1` (centres unmarked) [Compound I-10] returned an MTD at 6 days greater than 2000 mg/kg. In the series “in vivo [2]”, the half-life was 282 min. In the series “in vivo [2]”, this compound returned an AUC(0-t) of 9000 ng·h/mL. This compound showed a Cmax in the series “in vivo [2]” of 1510 ng/mL. In addition, the Tmax in “in vivo [2]” was 6.3 h. The concentration for half-maximal inhibition (IC50) in series [3] is 1 nM; on IRAK4 kinase, 1.1 nM. The “Inhibition rate (%) of hERG current” value was 0.1% on hERG potassium channel (5 μM), 0.9% on hERG potassium channel (50 μM) and 20.3% on hERG potassium channel (500 μM).
On to `COc1cc2nn(CCS(=N)(=O)c3ccncc3)cc2cc1NC(=O)c1cnn2cccnc12` (centres unmarked) [Compound I-21], for which, in “in vivo [1]”, the MTD at 6 days was greater than 2000 mg/kg. The compound further had a half-life in “in vivo [2]” of 312 min. Also, the AUC(0-t) in “in vivo [2]” stood at 9400 ng·h/mL. The compound further registered a Cmax in “in vivo [2]” of 1520 ng/mL. Moreover, the Tmax in “in vivo [2]” stood at 5.8 h. Further, the values for the IC50 (in series [3]; on IRAK4 kinase) were 0.9 nM and 0.5 nM, respectively. The results for the “Inhibition rate (%) of hERG current” value on hERG potassium channel (5 μM), on hERG potassium channel (50 μM) and at hERG potassium channel (500 μM) were 2.3%, 2.1% and 29.7%, respectively.
Consider `CC(C)(O)c1cc2nn(CCS(=N)(=O)c3ncnc4ccccc34)cc2cc1NC(=O)c1cccc(C(F)(F)F)n1` (centres unmarked) [Compound I-34], for which the MTD at 6 days in “in vivo [1]” is greater than 2000 mg/kg. In the series “in vivo [2]”, the half-life is 318 min, the AUC(0-t) turned out to be 8000 ng·h/mL, the Cmax was 1630 ng/mL and the Tmax is 5.5 h. Further, inhibition in series [3] was half-maximal at 0.5 nM (IC50). Also, the concentration for half-maximal inhibition (IC50) at IRAK4 kinase came out at 0.5 nM. For the same compound, the “Inhibition rate (%) of hERG current” value on hERG potassium channel (5 μM) is on record as -1.6%. Moreover, the “Inhibition rate (%) of hERG current” value on hERG potassium channel (50 μM) is 1.0%. Also, the “Inhibition rate (%) of hERG current” value on hERG potassium channel (500 μM) is given as 11.5%.
